Entries after “also recorded” stand apart in the source; their conditions may differ.
What was measured:
[1] = test system: indomethacin-induced intestinal ulceration; assay: Indomethacin-induced fatal intestinal ulceration (15 mg/kg p.o.), inflation technique; type: in vivo, rat (female H-Wistar)
Experimental: Indomethacin-induced intestinal ulceration
Of the non-steroidal antiinflammatory agents indomethacin has not only a gastric-ulcer inducing side-effect but may also cause serious intestinal ulceration. Depending on the dose, the intestinal ulceration may be fatal, peritonitis due to intestinal perforations kills the animals.
(a) Indomethacin-induced fatal intestinal ulceration
Non-fasted, female H-Winstar rats, weighing 120-150 g each were treated orally with a 15 mg/kg dose of indomethacin (in Tween 80 suspension). […] Under these conditions it requires about 48 to 72 hours to detect intenstinal ulceration.
(§1) To evaluate the development of intestinal ulcers the so-called inflation technique by Ezer and Szporny (J. Pharm. Pharmacol. 27, 866 (1975)) was employed. By this method the progress of ulceration can be monitored quantitatively. The tensile strength of the intestinal wall expressed in mmHg weakens gradually parallel with the progress of ulceration.

[2] = test system: indomethacin-induced non-fatal intestinal ulceration; assay: Indomethacin-induced (7.5 mg/kg p.o.) non-fatal intestinal ulceration, post-treatment, inflation technique; type: in vivo, rat (H-Wistar); details: for Non-fatal intestinal ulceration post-treatment, in words: post-treatment 4, 24 and 48 hours after indomethacin 7.5 mg/kg p.o.
Experimental: as §1
(b) Indomethacin-induced non-fatal ulceration
Non-fasted H-Wistar rats weighing 120 to 150 g each were administered 7.5 mg/kg indomethacin orally, to induce non-fatal intestinal ulceration. 4, 24 and 48 hours, respectively, after the indomethacin treatment the animals were treated with the test material orally. The animals were killed 24 hours after the last treatment and 72 hours after the ulcer-induction performed with indomethacin, respectively. Ulceration was evaluated by the inflation technique.

[3] = test system: gastric necrosis induced by absolute alcohol; assay: Gastric necrosis induced by absolute alcohol (cytoprotection); type: in vivo, rat (female H-Wistar)
Experimental: Gastric necrosis induced by absolute alcohol
Water was allowed ad libitum. The compounds to be tested were administered orally, 30 minutes prior to the administration of 0.5 ml of ethanol/100 g of body weight through a canula. Two hours later the animals were killed by overdosing ether. Stomachs were removed and opened along the major curvature. […] Degree of the cytoprotection was expressed in % related to the control.

[4] = test system: intestinal ulceration induced by indomethacin; details: literature; cited from earlier work
ulceration = details: rheumatic patients simultaneously suffering from ulceration; cited from earlier work
gastric acid secretion = assay: Gastric acid secretion in Shay-rats (pylorus ligation, 4 hours); type: in vivo, rat (female H-Wistar)
Experimental: The method was first described by Shay et al in 1945 (Gastroenterology 56, 5-13, 1945). Female H-Wistar rats (120-150 g) were gasted for 24 hours. Water was allowed ad libitum. The pylorus of the animals was ligated in slight ether narcosis. […] 4 hours after treatment the animals were killed by an overdose of ether. The stomach was excised and cut along the large curvature. The volume and the pH of the contents were determined, in certain cases the HCl production was determined by titration.

[5] = test system: aspirin-induced gastric ulcers; assay: Aspirin-induced stomach ulcer; type: in vivo, rat (female H-Wistar)
Experimental: It is known that the non-steroidal antiinflammatory agents induce gastointestinal ulceration to certain extent (Drugs and Peptic Ulcer, Ed. Pfeiffer, CRC Press, New York 1982). To test anti-ulcer compounds the so-called Aspirin-induced ulcer model is widely used. Female H-Wistar rats weighing 120-150 g each were fasted for 24 hours. Water was allowed ad libitum. The stomach ulcer was induced by oral administration of 100 mg/kg Aspirin (in Tween 80 suspension). The test drug was given simultaneously with the administration of Aspirin, orally. The animals were killed by an overdose of ether, 4 hours after treatment. The stomach was excised and cut along the large curvature. The contents were slightly washed and the haemorrhagic lesions in the glandular surface were counted. When evaluating the test results, the number of ulcers per stomach or the ulcer-free animals were determined.

Toxicological studies = assay: Toxicological studies
Experimental: For intravenous administration the compound was dissolved in dimethyl formamide.

[6] = test system: gastric ulcers induced by indomethacin; assay: Gastric ulcers induced by a 20 mg/kg oral dose of indomethacin; type: in vivo; details: 20 mg/kg oral dose of indomethacin
ulcer = assay: Anti-ulcer activity in general (pharmacological tests); type: in vivo; details: compared with cimetidine
Excerpt: The pharmacological activity of the new compounds has been investigated by the following methods: […]

[7] = indomethacin 15 + 150 mg/kg p.o.
[8] = 7.5 + 3 × 50 mg/kg p.o., 4, 24, 48 hours after indomethacin
[9] = 10 mg/kg i.p., 15 min. prior to operation, n=5
[10] = 10 mg/kg s.c., 15 min prior to operation, n=5
[11] = 10 mg/kg, 15 min prior to operation, n=5
[12] = Aspirin 100 + 1.5 mg/kg p.o., n=10
[13] = Aspirin 100 + 3.0 mg/kg p.o., n=17
[14] = Aspirin 100 + 6.0 mg/kg p.o., n=17
[15] = Aspirin 100 + 12.0 mg/kg p.o., n=14
[16] = Aspirin 100 + 25.0 mg/kg p.o., n=17
[17] = indomethacin 15 + 15 mg/kg p.o.
[18] = indomethacin 15 + 25 mg/kg p.o.
[19] = indomethacin 15 + 50 mg/kg p.o.

In the case of `CN/C(=N/CCSCc1nc[nH]c1C)NC#N` [Cimetidine, N-cyano-N'-methyl-N"-2-[(5-methyl-imidazole-4-yl)-methylthio]-ethyl-guanidine, reference compound], the “Intestinal wall resistency in % of normal” value [1, 7] is reported as 21 % of normal, the “T.s. of intestinal wall 72 hours after treatment” value [1, 7] is reported as 47 ± 25 mm Hg and the “T.s. of intestinal wall 72 hours after indomethacin treatment” value [2, 8] is reported as 184 ± 7 mm Hg. The “T.s. of intestinal wall 72 hours after indomethacin treatment” value ([2]; 7.5 + 3 × 100 mg/kg p.o., 4, 24, 48 hours after indomethacin) was 197 ± 10 mm Hg, the “Non-fatal intestinal ulceration post-treatment, in words” value [2] was “ineffective” and the Cytoprotection ([3]; 6.0 mg/kg p.o.) was 44%. For the same compound, the “Length of average lesion” value ([3]; 6.0 mg/kg p.o.) was 46.0 ± 10 mm/stomach, the Cytoprotection ([3]; 12.0 mg/kg p.o.) was 24% and the “Length of average lesion” value ([3]; 12.0 mg/kg p.o.) was 63.0 ± 18 mm/stomach. For the same compound, the Cytoprotection ([3]; 25.0 mg/kg p.o.) was 33%, the “Length of average lesion” value ([3]; 25.0 mg/kg p.o.) was 55.0 ± 12 mm/stomach and the Cytoprotection ([3]; 50.0 mg/kg p.o.) was 59%. For the same compound, the “Length of average lesion” value ([3]; 50.0 mg/kg p.o.) was 34.0 ± 10 mm/stomach, the Cytoprotection ([3]; 100.0 mg/kg p.o.) was 43% and the “Length of average lesion” value ([3]; 100.0 mg/kg p.o.) was 47.0 ± 16 mm/stomach. For the same compound, the “Indomethacin-induced intestinal ulceration, in words” value [4] was “cannot inhibit intestinal ulceration induced by indomethacin” and the “Outcome of simultaneous administration of cimetidine and indomethacin” value (ulceration) was “perforation in rheumatic patients”.
With `N#CN=C1SCCN1Cc1ccccc1` [Compound A, 3-Benzyl-2-cyanimino-thiazolidine] the Acid secretion (gastric acid secretion; 1.25 mg/kg i.p., n=5) was 436 μmol HCl/100 g b.w, the Acid secretion (gastric acid secretion; 2.5 mg/kg i.p., n=10) was 358 μmol HCl/100 g b.w and the “Inhibition of acid secretion” value (gastric acid secretion; 2.5 mg/kg i.p., n=10) was 17%. The Acid secretion (gastric acid secretion; 5.0 mg/kg i.p., n=10) was 301 μmol HCl/100 g b.w, the “Inhibition of acid secretion” value (gastric acid secretion; 5.0 mg/kg i.p., n=10) was 30% and the “Gastric acid secretion (volume)” value (gastric acid secretion; [9]) was 2.5 ml/100 g, b.w. The “Gastric acid secretion, pH” value (gastric acid secretion; [9]) was 3.7, the “Gastric acid secretion, vol. inhibition” value (gastric acid secretion; [9]) was 42% and the “Inhibition of acid secretion” value (gastric acid secretion; 10.0 mg/kg i.p., n=20) was 100%. The “Gastric acid secretion (volume)” value (gastric acid secretion; [10]) was 2.8 ml/100 g, b.w, the “Gastric acid secretion, pH” value (gastric acid secretion; [10]) was 1.5 and the “Gastric acid secretion, vol. inhibition” value (gastric acid secretion; [10]) was 35%. The “Gastric acid secretion (volume)” value (gastric acid secretion; [11]) was 2.3 ml/100 g, b.w, the “Gastric acid secretion, pH” value (gastric acid secretion; [11]) was 4.1 and the “Gastric acid secretion, vol. inhibition” value (gastric acid secretion; [11]) was 47%. The “Inhibition of acid secretion” value (gastric acid secretion; 25.0 mg/kg i.p., n=5) was 100%, the ED50 (gastric acid secretion; Rattus norvegicus, ip, 4 h, i.p., Shay rats, read-out: ED50, gastric acid secretion inhibition) was 5.3 mg/kg and the “Gastric acid secretion decreasing effect, in words” value (gastric acid secretion; Table 1, i.p.) was “dose-dependent gastric acid secretion decreasing effect”. The “Gastric acid secretion inhibition on oral administration, in words” value (gastric acid secretion; administered orally) was “effectively inhibits the gastric acid secretion also when administered orally”, the Oral absorption (gastric acid secretion; comparison of i.p., s.c. and p.o. data) was “good oral absorption” and the Number of ulcers/stomach [5, 12] was 9.5. The Ulcer inhibition [5, 12] was 40%, the Ulcer-free animals [5, 12] was 0% and the Number of ulcers/stomach [5, 13] was 6.8. The Ulcer inhibition [5, 13] was 57%, the Ulcer-free animals [5, 13] was 23% and the Number of ulcers/stomach [5, 14] was 4.7. The Ulcer inhibition [5, 14] was 71%, the Ulcer-free animals [5, 14] was 29% and the Number of ulcers/stomach [5, 15] was 2.2. It also gave a Ulcer inhibition [5, 15] of 86%, a Ulcer-free animals [5, 15] of 66% and a Number of ulcers/stomach [5, 16] of 2.3. For the same compound, the Ulcer inhibition [5, 16] was 85%, the Ulcer-free animals [5, 16] was 41% and the ED50 ([5]; Rattus norvegicus, po, 4 h, simultaneous administration) was 2.1 mg/kg. The “Aspirin-induced gastric ulceration, in words” value ([5]; simultaneous administration, depending on the dose) was “inhibits the formation of the aspirin-induced gastric ulceration”, the ED100 ([1]; Rattus norvegicus, po, simultaneous with indomethacin 15 mg/kg, read-out: ED100) was 50 mg/kg and the “Intestinal wall resistency in % of normal” value [1, 17] was 52 % of normal. The “T.s. of intestinal wall 72 hours after treatment” value [1, 17] was 120 ± 20 mm Hg, the “Intestinal wall resistency in % of normal” value [1, 18] was 83 % of normal and the “T.s. of intestinal wall 72 hours after treatment” value [1, 18] was 192 ± 18 mm Hg. For the same compound, the “Intestinal wall resistency in % of normal” value [1, 19] was 97 % of normal, the “T.s. of intestinal wall 72 hours after treatment” value [1, 19] was 225 ± 6 mm Hg and the “Indomethacin-induced intestinal ulceration, in words” value ([1]; simultaneous administration, indomethacin 15 mg/kg p.o.) was “dose-dependent inhibiting effect; also recorded: inhibits the indomethacin-induced intestinal ulceration”. The “T.s. of intestinal wall 72 hours after indomethacin treatment” value ([2]; 7.5 + 3 × 25 mg/kg p.o., 4, 24, 48 hours after indomethacin) was 176 ± 20 mm Hg, the “T.s. of intestinal wall 72 hours after indomethacin treatment” value [2, 8] was 249 ± 4 mm Hg and the “Non-fatal intestinal ulceration post-treatment, in words” value [2] was “can normalize the tensile strength of the intestine wall”. For the same compound, the Cytoprotection ([3]; 1.5 mg/kg p.o.) was 37%, the “Length of average lesion” value ([3]; 1.5 mg/kg p.o.) was 52.5 ± 19 mm/stomach and the Cytoprotection ([3]; 3.0 mg/kg p.o.) was 58%. For the same compound, the “Length of average lesion” value ([3]; 3.0 mg/kg p.o.) was 34.8 ± 10 mm/stomach, the Cytoprotection ([3]; 6.0 mg/kg p.o.) was 64% and the “Length of average lesion” value ([3]; 6.0 mg/kg p.o.) was 29.9 ± 9 mm/stomach. The Cytoprotection ([3]; 12.0 mg/kg p.o.) was 60%, the “Length of average lesion” value ([3]; 12.0 mg/kg p.o.) was 32.9 ± 5 mm/stomach and the Cytoprotection ([3]; 25.0 mg/kg p.o.) was 78%. The “Length of average lesion” value ([3]; 25.0 mg/kg p.o.) was 18.0 ± 8 mm/stomach, the ED50 ([3]; Rattus norvegicus, po, 30 minutes prior to ethanol) was 2.8 mg/kg and the “Absolute alcohol-induced gastric necrosis, in words” value ([3]; rat, in vivo) was “effective against the gastric necrosis induced by absolute alochol; also recorded: effective also in the absolute alcohol necrosis test”. The Sickness / death (Toxicological studies; 100 mg/kg, route not given, within 3 days) was “sickness of the test animals but no death occurs”, the Death (Toxicological studies; 250 mg/kg, within 2 weeks) was “no death is observed” and the “Time to death of the animals” value (Toxicological studies; 1500 mg/kg i.p.) was no more than 30 min. The “Behavior and food consumption of animals” value (Toxicological studies; 1500 mg/kg oral) was “normal”, the Further deaths (Toxicological studies; 1500 mg/kg oral, in the next week) was “no further deaths are observed” and the “Death of animals within 24 hours” value (Toxicological studies; 1500 mg/kg oral, within 24 hours) was 3 animals out of 10. For the same compound, the Therapeutic index (Toxicological studies; first toxicological studies) was “high therapeutic index”, the “Indomethacin-induced gastric ulcers, in words” value [6] was “effectively inhibited” and the “Spectrum of activity, in words” value (ulcer) was “wider spectrum of activity than for example cimetidine”. For the same compound, the Solubility in water (Solubility in water) was “insoluble in water”.
